# Assay results from patent US11220689B2, “Modulators of telomere disease” (Children's Medical Center Corporation, priority 2015, dated 2022).
# Columns and labels:
# recombinant PAPD5 = recombinant PAPD5 (Homo sapiens, UniProt Q8NDF8); assay: Inhibition of recombinant PAPD5 by aminoglycosides; type: biochemical; details: 10 μM each; FIG. 26
# Method: FIG. 26 is a graph showing inhibition of recombinant PAPD5 by aminoglycosides.
# Experiments were performed to determine whether aminoglycosides can be used to inhibit PAPD5. 10 μM each of the following are used, (1) Kanamycin B sulfate; (2) Apramycin sulfate; (3) Spectinomycin dihydrochloride pentahydrate; and (4) Ribostamycin sulfate.
# human TRF4-2 = assay: Lentiviral shRNA knockdown of TRF4-2 (PAPD5) in fibroblasts and patient-derived cells; type: cell-based
# From the text: Short-hairpin RNA (shRNA) constructs. Duplex oligonucleotides encoding shRNA targeting human TRF4-2 (ENA accession number: FR872509) and human PARN (NM_002582) or luciferase control (Table 6) were cloned into the pLKO.1-puro vector (Addgene #10878), and pLKO.1-blast vector (Addgene #26655). Lentiviral vector production and transduction of cells.
# Lentiviral vectors encoding shRNAs were produced by co-transfection of 293 cells with lentiviral plasmids described above, pCMV_dR8.91 and pCMV_VSV-G, using branched polyethylenimine (Sigma). Supernatants were harvested, filtered and frozen in aliquots on days 3-4 following transfection. For knockdown experiments, cells were transduced with lentivirus and harvested 6 days after selection in puromycin (2 μg/ml for 293 cells; 0.2 μg/ml for iPS cells) or blasticidin (10 μg/ml for 293 cells).
# human PAPD5 = assay: PAPD5 shRNA knockdown in PARN deficient HEK 293 cells: 3' RACE deep sequencing and Northern blot of TERC; type: cell-based; details: Northern blot, normal and PARN deficient HEK 293 cells, FIG. 11G, FIG. 18
# From the text: short-hairpin RNA (shRNA) constructs. Duplex oligonucleotides encoding shRNA targeting human PAPD5 (ENA accession: FR872509) or luciferase control (Table 13) were cloned into the pLKO.1-puro vector and pLKO.1-blast vectors (Addgene #10878 and #26655). shRNA constructs targeting human PARN (NM_002582) were as described, e.g., in Moon, Diane H., et al. “Poly (A)-specific ribonuclease (PARN) mediates 3 [prime]-end maturation of the telomerase RNA component.” Nature genetics 47.12 (2015): 1482-1488.
# Viral vector production and transduction. […]. Lentiviral particles were produced by co-transfection of HEK 293T cells with lentiviral vectors, pCMV_dR8.91 and pCMV_VSV-G. For knockdown and overexpression experiments, HEK 293 cells, fibroblasts and iPSCs were transduced with viral vectors in the presence of protamine sulfate (10 μg/ml) for 8-12 hours. For TERC and DKC1 experiments, transduced HEK 293 cells and fibroblasts were sorted for mCherry or EGFP expression and cultured without further selection. […]
# Formaldehyde/agarose gel electrophoresis. […] Quantification was performed using ImageJ. […]
# TERC RNA 3′ ends were profiled as described in e.g., Moon, Diane H., et al. “Poly (A)-specific ribonuclease (PARN) mediates 3 [prime]-end maturation of the telomerase RNA component.” Nature genetics 47.12 (2015): 1482-1488. […] Reads mapping to the TERC gene were analyzed using custom developed Perl scripts.
# PARN = assay: CRISPR/Cas9 genome targeting of PARN in normal (WT) iPSCs, lentiviral gRNA; type: cell-based, human
# Method: (§1) Experiments were performed to determine the requirement of PARN and PAPD5 for viability and function of human stem cells. CRISPR/Cas9 genome targeting was performed to create biallelic null mutations. Lentiviral vectors containing guide RNAs (gRNAs; Table 15) to PARN or PAPD5 were designed and used to transduce normal (WT) and PARN mutant induced pluripotent stems (iPSCs), and the frequency of insertion/deletions (indels) were assessed. […] Populations of stable lentiviral transduced PARN or PAPD5 targeted iPSCs were subcloned to identify lines with biallelic inactivation of PARN or PAPD5. […] In contrast, iPSCs with indels causing frameshifts in PAPD5 and lacking PAPD5 protein could be isolated (FIG. 23). Inactivation of PAPD5 by CRISPR/Cas9 augmented TERC levels in iPSC clones (FIG. 24).
# PAPD5 = assay: CRISPR/Cas9 genome targeting of PAPD5 in PARN mutant iPSCs, lentiviral gRNA; type: cell-based, human
# Method: as §1
# human PARN = assay: PARN shRNA knockdown in 293 cells: 3' RACE and deep sequencing of TERC 3' ends; type: cell-based; details: versus control shRNA, FIG. 8
# Method: 600 ng of total RNA was ligated to 5 μM of 5′-adenylated, 3′-blocked adapter (Universal miRNA cloning linker, New England Biolabs, Ipswich, Mass.) with 280 units of T4 RNA ligase truncated KQ (New England Biolabs, Ipswich, Mass.), 25% PEG 8000, and 1 μl RNaseOUT (Life Technologies, Carlsbad, Calif.) in a 20 μl reaction at 25 degrees C. for 16-24 hr. After cleanup with RNA Clean and Concentrator columns (Zymo Research, Irvine, Calif.), followed by DNase treatment, cDNA was synthesized with 5 pmol of universal RT primer and SuperScript III. […] PCR products were directly analyzed run on 2.5% agarose gels to visualize mature and extended TERC transcripts, or subject to Qiaquick PCR purification columns (Qiagen, Hilden, Germany) for library preparation for deep sequencing. […]
# RACE products were prepared for deep sequencing using the TruSeq Nano DNA LT Library Prep Kit (Illumina, San Diego, Calif.). […] The quality and quantity of each library was determined on an Advanced Analytical Fragment Analyzer. […] The reads were de-multiplexed with CASAVA 1.8.2 and the read 1 and read 2 fastq files for each sample were generated. For data analysis, the Illumina adapter sequence was first removed from the end of each read using Trimmomatic50. […] The joined-reads from each sample were then mapped to the TERC gene (NR_001566; SEQ ID NO: 99) with the Bowtie2 mapper52, and outputted to a SAM file. […]
# Chain of recombinant PAPD5 (Q8NDF8 whole entry): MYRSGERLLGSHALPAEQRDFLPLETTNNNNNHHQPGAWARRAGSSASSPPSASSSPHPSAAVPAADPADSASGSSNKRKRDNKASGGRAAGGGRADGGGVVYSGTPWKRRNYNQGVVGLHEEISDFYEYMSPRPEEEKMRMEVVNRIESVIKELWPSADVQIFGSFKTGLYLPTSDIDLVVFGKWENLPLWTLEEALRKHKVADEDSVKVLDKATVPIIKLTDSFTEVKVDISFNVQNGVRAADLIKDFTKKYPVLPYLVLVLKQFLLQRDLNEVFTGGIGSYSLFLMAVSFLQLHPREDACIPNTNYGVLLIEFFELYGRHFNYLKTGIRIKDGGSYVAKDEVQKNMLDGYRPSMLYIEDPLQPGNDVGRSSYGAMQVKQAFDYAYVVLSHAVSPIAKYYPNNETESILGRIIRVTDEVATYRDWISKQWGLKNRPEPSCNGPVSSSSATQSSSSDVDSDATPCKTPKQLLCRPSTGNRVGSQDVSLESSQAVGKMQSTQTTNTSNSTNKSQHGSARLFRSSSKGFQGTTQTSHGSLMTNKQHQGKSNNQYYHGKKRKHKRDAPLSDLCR
compound,measurement,setting,value
Apramycin sulfate,inhibition of PAPD5,recombinant PAPD5,can inhibit PAPD5
"PAPD5 shRNA2: lentivirus-encoded shRNA targeting human PAPD5, SEQ ID NO: 79 in Table 13 (CCGGGCCACATATAGAGATTGGATACTCGAGTATCCAATCTCTATATGTGGCTTTTTG)",TERC levels,human TRF4-2,restored the TERC levels
same,knock-down of PAPD5,human TRF4-2,knocked-down PAPD5 to significant levels
same,steady state levels of TERC transcripts,human PAPD5,increased
"PARN gRNA 91: guide RNA targeting PARN for CRISPR/Cas9, SEQ ID NO: 94 (target + PAM), 95 (guide TGAAGTGTTAGGAGATACAT; listed as DNA, chemistry not given here)",frequency of insertion/deletions (indels),PARN,high frequency of indels
same,PARN RNA transcript levels,"PARN; qPCR, FIG. 20A",reductions
same,TERC RNA levels,"PARN; qPCR, FIG. 20B",reductions
NC[C@H]1O[C@H](O[C@H]2[C@H](O)[C@@H](O[C@H]3O[C@H](CO)[C@@H](O)[C@H](N)[C@H]3O)[C@H](N)C[C@@H]2N)[C@H](N)[C@@H](O)[C@@H]1O.O=S(=O)(O)O [Kanamycin B sulfate],inhibition of PAPD5,recombinant PAPD5,can inhibit PAPD5
"gRNA 451: guide RNA targeting PAPD5 for CRISPR/Cas9, SEQ ID NO: 88 (target + PAM), 89 (guide CCTCTTGTTGCTGCTGCCCG; listed as DNA, chemistry not given here)",frequency of insertion/deletions (indels),PAPD5; PAPD5 gRNAs,highest frequency of indels
same,PAPD5 transcript levels,"PAPD5; PARN mutant cells, qPCR, FIG. 21A",reductions
same,TERC RNA levels,"PAPD5; PARN mutant cells, qPCR, FIG. 21B",increases
NC[C@H]1O[C@H](O[C@H]2[C@H](O[C@@H]3O[C@H](CO)[C@@H](O)[C@H]3O)[C@@H](O)[C@H](N)C[C@@H]2N)[C@H](N)[C@@H](O)[C@@H]1O.O=S(=O)(O)O [Ribostamycin sulfate],inhibition of PAPD5,recombinant PAPD5,can inhibit PAPD5
"PARN shRNA1: lentivirus-encoded shRNA directed against PARN (3' untranslated region), SEQ ID NO: 74 (DNA CCGGCCGCACTGTATTTAACTTAATCTCGAGATTAAGTTAAATACAGTGCGGTTTTTG)",levels of mature TERC,human PARN,diminished levels of mature TERC
same,oligo(A) forms of TERC,human PARN,increased oligo(A) forms
"PAPD5 shRNA1: lentivirus-encoded shRNA targeting human PAPD5, SEQ ID NO: 83 in Table 13 (CCGGCGATGTTGGAAGGAGTTCATACTCGAGTATGAACTCCTTCCAACATCGTTTTTG)",TERC levels,human TRF4-2,restored the TERC levels
same,knock-down of PAPD5,human TRF4-2,knocked-down PAPD5 to significant levels
same,steady state levels of TERC transcripts,human PAPD5,increased
CN[C@@H]1[C@H](O)[C@H](NC)[C@H]2O[C@@]3(O)C(=O)C[C@@H](C)O[C@H]3O[C@@H]2[C@H]1O.Cl.Cl.O.O.O.O.O [Spectinomycin dihydrochloride pentahydrate],inhibition of PAPD5,recombinant PAPD5,can inhibit PAPD5
